Experimental data published in patent publication US11401271B2, “Fused heterocyclic compound, pyrazole-ring-containing fused heterocyclic compound, agricultural composition containing thereof, and method of using the composition” (SOUTH CHINA AGRICULTURAL UNIVERSITY, priority 2017, dated 2022).

Experiments:
Assay in all cases: whole plant or invertebrate
Type in all cases: in vivo
Aphis craccivora = conditions: 500 ppm; wingless adults, immersion 5 seconds, counted after 24 hours
Summary of the method: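 Mortality scored 24 h after treatment as the reduction in live aphids versus a 0.05% Tween-80 control; three replicates, 23° C. Treatment was a 5 s immersion of wingless adults on bean sprouts in 500 ppm test solution containing 0.05% Tween-80, followed by air-drying.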

Spodoptera exigua = conditions: 500 ppm; 2nd-instar larvae, leaf immersion feeding
Summary of the method: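 Leaf immersion feeding: second-instar larvae (about 35 per vessel, triplicate) kept at 28° C on discs treated with 500 ppm test solution in 0.05% Tween-80. Mortality at 24 h, calculated relative to surviving larvae in the solvent control.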

Solenopsis invicta = conditions: 100 ppm, water test tube poison-feeding
Summary of the method: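 Mortality (%) of Solenopsis invicta, computed against live counts in control tubes, was recorded 24 h and 72 h after treatment at 25 °C. Compound was offered by oral feeding in test tubes at 100 ppm, diluted from a 10 g/L DMSO stock into water with 5% honey and 0.05% Tween-80.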

Plutella xylostella = conditions: 500 ppm; 2nd-instar larvae, leaf immersion feeding
Summary of the method: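 Leaf immersion feeding test: 2nd-instar larvae (about 35 per vessel, 3 replicates) kept at 28° C. on 1.0 cm cabbage discs soaked 5 s in a 500 ppm solution with 0.05% Tween-80. Mortality after 24 h of exposure, calculated relative to live larvae in the Tween-80 control.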

SMILES | Aphis craccivora Mortality (%) (Aphis craccivora) | Spodoptera exigua Mortality (%) (Spodoptera exigua) | Solenopsis invicta Mortality (%) 24 h (Solenopsis invicta) [%] | Solenopsis invicta Mortality (%) 72 h (Solenopsis invicta) [%] | Plutella xylostella Mortality (%) (Plutella xylostella)
CNC(=O)C1Nc2c([S+]([O-])C(F)(F)F)c(C(F)(F)F)nn2-c2cncc(Cl)c21 (centres unmarked) [b-99] | 100 | 85 | 24 | 90 | 91
[O-][S+](c1c(C(F)(F)F)nn2c1NC(Br)c1c(Cl)cncc1-2)C(F)(F)F (centres unmarked) [b-104] | 100 | 96 | 20 | 96 | 96
COC(=O)CC1Nc2c(OC(F)(F)F)c(C#N)nn2-c2cncc(Cl)c21 (centres unmarked) [b-111] | 100 | 100 | 24 | 100 | 100
N#Cc1nn2c(c1OC(F)(F)F)NC(CC(=O)C(F)(F)F)c1c(Cl)cncc1-2 (centres unmarked) [b-116] | 100 | 98 | 20 | 100 | 100
N#Cc1nn2c(c1OC(F)(F)F)NC(C#N)c1c(Cl)cncc1-2 (centres unmarked) [b-118] | 100 | 91 | 14 | 99 | 99
CNC(=O)CC1Nc2c(OC(F)(F)F)c(C#N)nn2-c2cncc(Cl)c21 (centres unmarked) [b-123] | 100 | 95 | 24 | 100 | 99
CC(C)C1Nc2c(OC(F)(F)F)c(C#N)nn2-c2cncc(Cl)c21 (centres unmarked) [b-131] | 100 | 95 | 11 | 100 | 95
COC(=O)CC1(C(=O)OC)Nc2c(C#N)c(C(F)(F)F)nn2-c2cncc(Cl)c21 (centres unmarked) [b-136] | 100 | 100 | 20 | 97 | 100
COC(=O)CC1(C(=O)OC)Nc2c(C(F)(F)F)c(C#N)nn2-c2cc(C(F)(F)F)cc(Cl)c21 (centres unmarked) [c-2] | 100 | 90 | 20 | 97 | 95
COC(=O)CC1(C(=O)OC)Nc2c(C#N)c(C(F)(F)F)nn2-c2cc(C(F)(F)F)cc(Cl)c21 (centres unmarked) [c-4] | 100 | 100 | 29 | 93 | 97
COC(=O)C1(CC(=O)OCC(F)(F)F)Nc2c([S+]([O-])C(F)(F)F)c(C#N)nn2-c2cc(C(F)(F)F)cc(Cl)c21 (centres unmarked) [c-19] | 100 | 100 | 20 | 100 | 100
COC(=O)C1(CC(=O)OCC(F)F)Nc2c([S+]([O-])C(F)(F)F)c(C#N)nn2-c2cc(C(F)(F)F)cc(Cl)c21 (centres unmarked) [c-20] | 100 | 100 | 14 | 100 | 100
N#Cc1nn2c(c1[S+]([O-])C(F)(F)F)NC(Cc1ccccc1)(C(=O)C(F)(F)F)c1c(Cl)cc(C(F)(F)F)cc1-2 (centres unmarked) [c-36] | 95 | 90 | 21 | 100 | 92
